Activity calls are given as the source filed them. The calls are words filed in the database; no cut-off is given here.
Columns and labels:
[1] = target: T1, Adenosine receptor A1 (Homo sapiens) (UniProt P30542); test: (§1) Allosteric enhancing activity at human adenosine A1 receptor expressed in CHO cells assessed as inhibition of forskolin-stimulated cAMP accumulation at 10 uM incubated for 10 mins prior to forskolin-stimulation measured after 5 mins by competition protein binding assay; type: functional, cell-based
T1 sequence (whole entry): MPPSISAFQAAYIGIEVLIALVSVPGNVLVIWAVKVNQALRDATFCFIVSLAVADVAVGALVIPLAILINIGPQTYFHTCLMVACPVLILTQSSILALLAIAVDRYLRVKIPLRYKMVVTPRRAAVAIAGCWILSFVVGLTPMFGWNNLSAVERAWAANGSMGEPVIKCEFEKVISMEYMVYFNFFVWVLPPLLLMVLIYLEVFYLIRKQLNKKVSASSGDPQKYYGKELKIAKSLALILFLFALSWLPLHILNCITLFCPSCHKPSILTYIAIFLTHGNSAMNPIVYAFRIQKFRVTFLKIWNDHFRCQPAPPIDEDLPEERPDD

[2] = target: T1, Adenosine receptor A1 (Homo sapiens); test: Allosteric enhancing activity at human adenosine A1 receptor expressed in CHO cells assessed as increase in [3H]-2-chloro-N6-cyclopentyladenosine Bmax at 10 uM after 90 mins relative to control; type: cell-based
[3] = target: T1, Adenosine receptor A1 (Homo sapiens); test: Displacement of [3H]DPCPX from human adenosine A1 receptor expressed in CHO cells at 10 uM after 120 mins by scintillation counting; type: cell-based
[4] = target: T2, Adenosine receptor A3 (Homo sapiens) (UniProt P0DMS8); test: Displacement of [3H]MRE-3008-F20 from human adenosine A3 receptor expressed in CHO cells at 10 uM after 120 mins by scintillation counting; type: cell-based
T2 sequence (whole entry): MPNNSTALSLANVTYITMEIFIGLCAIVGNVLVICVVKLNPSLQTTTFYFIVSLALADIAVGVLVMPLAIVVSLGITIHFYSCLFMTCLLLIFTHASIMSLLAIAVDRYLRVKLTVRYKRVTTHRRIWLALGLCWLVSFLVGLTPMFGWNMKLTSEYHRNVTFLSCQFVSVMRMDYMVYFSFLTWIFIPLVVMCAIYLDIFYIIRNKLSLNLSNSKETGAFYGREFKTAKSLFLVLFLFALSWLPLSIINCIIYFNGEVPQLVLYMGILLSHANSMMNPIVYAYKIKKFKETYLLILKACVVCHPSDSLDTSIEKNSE

[5] = target: T1, Adenosine receptor A1 (Homo sapiens); test: as §1, with “100 nM” for “10 uM”, “assay in presence of 2-chloro-N6-cyclopentyladenosine” for “assay”; type: functional, cell-based
[6] = target: Adenosine receptor A2a (Homo sapiens) (UniProt P29274); test: Displacement of [3H]ZM241385 from human adenosine A2A receptor expressed in CHO cells at 10 uM after 120 mins by scintillation counting; type: cell-based
[7] = target: T1, Adenosine receptor A1 (Homo sapiens); test: Allosteric enhancing activity at human adenosine A1 receptor expressed in CHO cells assessed as increase in CCPA-induced [3H]DPCPX displacement at 10 uM after 90 mins relative to control; type: cell-based

Adenosine receptor A2a (Homo sapiens), sequence (P29274 whole entry): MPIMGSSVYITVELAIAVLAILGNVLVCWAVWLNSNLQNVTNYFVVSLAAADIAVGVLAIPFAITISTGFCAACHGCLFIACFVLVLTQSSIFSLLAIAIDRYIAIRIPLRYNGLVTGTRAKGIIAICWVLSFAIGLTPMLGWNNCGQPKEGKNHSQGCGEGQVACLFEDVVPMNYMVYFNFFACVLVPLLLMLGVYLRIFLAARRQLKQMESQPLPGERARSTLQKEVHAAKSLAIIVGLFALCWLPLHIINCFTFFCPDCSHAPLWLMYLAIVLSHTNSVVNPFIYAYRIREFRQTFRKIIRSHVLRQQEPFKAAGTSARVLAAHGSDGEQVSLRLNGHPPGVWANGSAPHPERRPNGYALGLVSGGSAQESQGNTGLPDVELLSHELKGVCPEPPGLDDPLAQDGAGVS

inhibition [1] [%]	fold change (FC) [2]	inhibition [3]	inhibition [4] [%]	inhibition [5] [%]	inhibition [6]	Ratio Ki [7]	SMILES
48	4.7	< 12%	< 12	43	< 12%	4.5	Nc1sc(Br)c(CN2CCN(c3ccccc3)CC2)c1C(=O)c1ccc(Cl)cc1
76	10.1	< 12%	< 12	70	< 12%	8	Nc1sc(-c2ccc(Cl)cc2)c(CN2CCN(c3ccc(Cl)c(C(F)(F)F)c3)CC2)c1C(=O)c1ccc(Cl)cc1
64	8.5	< 12%	< 12	65	< 12%	7.9	Nc1sc(-c2ccccc2)c(CN2CCN(c3ccc(Cl)c(C(F)(F)F)c3)CC2)c1C(=O)c1ccc(Cl)cc1
68	9.7	< 12%	< 12	67	< 12%	7.9	Nc1sc(-c2ccccc2)c(CN2CCN(c3ccc(Cl)cc3)CC2)c1C(=O)c1ccc(Cl)cc1
55	6.8	< 12%	< 12	56	< 12%	3	Nc1sc(-c2ccccc2)c(CN2CCN(c3ccc(Cl)c(Cl)c3)CC2)c1C(=O)c1ccc(Cl)cc1
71	9.5	< 12%	< 12	68	< 12%	8.3	Nc1sc(-c2ccc(Cl)cc2)c(CN2CCN(c3ccc(F)cc3)CC2)c1C(=O)c1ccc(Cl)cc1
62	8.2	< 12%	< 12	66	< 12%	7.6	Nc1sc(-c2ccccc2)c(CN2CCN(c3ccccc3C(F)(F)F)CC2)c1C(=O)c1ccc(Cl)cc1
56	5.9	< 12%	< 12	51	< 12%	5.4	Cc1sc(N)c(C(=O)c2ccc(Cl)cc2)c1CN1CCN(c2ccc(Cl)c(Cl)c2)CC1
46	4.4	< 12%	< 12	41	< 12%	4.1	Nc1sc(Br)c(CN2CCN(c3ccc(F)cc3)CC2)c1C(=O)c1ccc(Cl)cc1
65	7.7	< 12%	< 12	63	< 12%	6.8	Nc1sc(-c2ccc(Cl)cc2)c(CN2CCN(Cc3ccccc3)CC2)c1C(=O)c1ccc(Cl)cc1
	1.3	inactive		22	inactive	1.6	Cc1sc(N)c(C(=O)c2cccc(C(F)(F)F)c2)c1C
89	14.1	< 12%	< 12	81	< 12%	13.3	Nc1sc(-c2ccc(F)cc2)c(CN2CCN(c3ccccc3)CC2)c1C(=O)c1ccc(Cl)cc1
60	7.6	< 12%	< 12	61	< 12%	6.8	Cc1sc(N)c(C(=O)c2ccc(Cl)cc2)c1CN1CCN(c2ccc(C(F)(F)F)cc2)CC1
85	11.4	< 12%	< 12	71	< 12%	8.7	Nc1sc(-c2ccc(Cl)cc2)c(CN2CCN(c3ccc(Cl)cc3)CC2)c1C(=O)c1ccc(Cl)cc1
58	6.5	< 12%	< 12	54	< 12%	6.1	Cc1sc(N)c(C(=O)c2ccc(Cl)cc2)c1CN1CCN(c2cccc(Cl)c2)CC1
11	1.4	< 12%	< 12	15	< 12%	1.2	Cc1sc(N)c(C(=O)c2ccc(Cl)cc2)c1CN1CCN(c2ccc(C#N)cc2)CC1
54	5.4	< 12%	< 12	45	< 12%	4.8	Cc1sc(N)c(C(=O)c2ccc(Cl)cc2)c1CN1CCN(c2ccc(I)cc2)CC1
	7					5.6	Nc1scc(CN2CCN(c3ccc(Cl)cc3)CC2)c1C(=O)c1ccc(Cl)cc1
31	3.2	< 12%	< 12	30	< 12%	2.6	COc1ccc(N2CCN(Cc3c(C)sc(N)c3C(=O)c3ccc(Cl)cc3)CC2)cc1
66	8.1	< 12%	< 12	62	< 12%	7.2	Nc1sc(-c2ccc(Cl)cc2)c(CN2CCN(c3ccccc3C(F)(F)F)CC2)c1C(=O)c1ccc(Cl)cc1
75	10.2	< 12%	< 12	72	< 12%	9.5	Nc1sc(-c2ccc(Cl)cc2)c(CN2CCN(c3ccccc3)CC2)c1C(=O)c1ccc(Cl)cc1
14	1.8	< 12%	< 12	19	< 12%	1.4	Cc1sc(N)c(C(=O)c2ccc(Cl)cc2)c1CN1CCN(Cc2ccccc2)CC1
61	6.6	< 12%	< 12	58	< 12%	5.9	Cc1ccc(N2CCN(Cc3c(C)sc(N)c3C(=O)c3ccc(Cl)cc3)CC2)cc1
60	6.5	< 12%	< 12	53	< 12%	6	CCc1sc(N)c(C(=O)c2ccc(Cl)cc2)c1CN1CCN(c2ccc(Cl)cc2)CC1
59	6.8	< 12%	< 12	57	< 12%	6.4	Cc1sc(N)c(C(=O)c2ccc(Cl)cc2)c1CN1CCN(c2ccccc2)CC1
83	11.2	< 12%	< 12	75	< 12%	10.5	Nc1sc(-c2ccc(Cl)cc2)c(CN2CCN(c3ccc(C(F)(F)F)cc3)CC2)c1C(=O)c1ccc(Cl)cc1
	6.8					5.3	Nc1scc(CN2CCN(c3ccc(OC(F)(F)F)cc3)CC2)c1C(=O)c1ccc(Cl)cc1
	7.7					6.3	Nc1scc(CN2CCN(c3ccc(C(F)(F)F)cc3)CC2)c1C(=O)c1ccc(Cl)cc1
